What follows are molecules tested against T1, Kv1.5 (Homo sapiens, UniProt P22460) (assay: Kv1.5 inhibition by patch clamp technique). Conditions: inhibitors of Kv1.5.
T1 construct: expressed in transfected cells; host or cells: CHO cells
Type: cell-based
Description: The pharmacological profile of the potassium channel inhibitory activity of the compounds of the present invention can be readily assessed by those skilled in the art using routine experimentation, such as the procedures and techniques illustrated in the examples which follow. Assays for assessing the activity of particular compounds may employ cells stably transfected to express a specific potassium channel, as well as native mammalian cells. In particular, stable transfected cells, transfected to express a specific potassium channel, which have been treated with a voltage dependent fluorescent dye, such as bis-(1,3-dibutylbarbituric acid) trimethine oxonol, can be used to gauge the inhibitory activity of potassium channel inhibitor compounds, possibly in comparison to known inhibitors. Alternatively, such cells can be primed with a detectible species, such as 86Rb, and then challenged with a particular compound, under conditions otherwise suitable for activating the potassium channel, to assess the potassium inhibitory activity of the compound. The potassium channel inhibitory activity of a compound also can be determined using isolated mammalian cells and the whole cell configuration of the known patch clamp technique (Hamill et al., Pflugers Archiv 391:85, 1981). These and other known techniques can be readily employed by those skilled in the art to assess the activity level of the potassium channel inhibitor compounds of the present invention.
The cloning, construction and testing of CHO cells that express human voltage-gate potassium channels are described in prior U.S. patent application Ser. No. 08/893,160 (published as WO 98/04521, see also U.S. Pat. No. 6,083,986), as are assays for measuring ^86rubidium efflux from cell monolayers; fluorescence measurement of cell membrane potential; electrophysiological studies and lymphocyte proliferation studies, all of which are incorporated herein by reference.
The efficacy of various compounds of the present invention as inhibitors of Kv1.5 are shown in Table 2 (using the known patch clamp techniques cited above and described in detail in WO 98/04521 (see also U.S. Pat. No. 6,083,986), the disclosure of which is incorporated herein by reference)

T1 sequence (P22460 whole entry): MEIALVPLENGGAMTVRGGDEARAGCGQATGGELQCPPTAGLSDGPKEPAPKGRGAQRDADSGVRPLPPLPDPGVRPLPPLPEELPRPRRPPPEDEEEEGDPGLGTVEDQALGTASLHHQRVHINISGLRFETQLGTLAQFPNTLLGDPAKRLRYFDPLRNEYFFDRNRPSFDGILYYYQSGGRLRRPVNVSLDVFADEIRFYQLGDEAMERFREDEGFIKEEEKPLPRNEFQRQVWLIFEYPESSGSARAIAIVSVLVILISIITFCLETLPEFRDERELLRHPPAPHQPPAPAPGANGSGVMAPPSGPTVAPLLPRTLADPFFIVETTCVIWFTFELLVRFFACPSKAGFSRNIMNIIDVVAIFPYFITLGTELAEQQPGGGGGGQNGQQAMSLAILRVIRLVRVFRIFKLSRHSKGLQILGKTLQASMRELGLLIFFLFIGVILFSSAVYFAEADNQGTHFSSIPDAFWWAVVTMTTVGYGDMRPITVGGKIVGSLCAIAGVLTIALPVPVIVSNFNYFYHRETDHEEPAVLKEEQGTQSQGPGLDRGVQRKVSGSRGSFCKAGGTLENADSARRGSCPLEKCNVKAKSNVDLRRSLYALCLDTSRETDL

| Structure (SMILES) | inhibition at 0.1 µM |
| --- | --- |
| CCc1ccc(S(=O)(=O)NC2CCc3ccc(Nc4ncccc4NC(=O)CCc4ccccc4)cc32)cc1 (stereo not shown) [Compound 1] | 46% |
| CCc1ccc(S(=O)(=O)NC2CCc3ccc(Nc4ncccc4C(=O)NCc4ccco4)cc32)cc1 (stereo not shown) [Compound 42] | 45% |
| O=C(NCCc1ccccc1)c1cccnc1Nc1ccc2c(c1)C(NS(=O)(=O)c1ccc(F)cc1)CC2 (stereo not shown) [Compound 58] | 27% |
| O=C(NCc1cccs1)c1cccnc1Nc1ccc2c(c1)C(NS(=O)(=O)c1ccc(F)cc1)CC2 (stereo not shown) [Compound 59] | 20% |

Continued, values first:

| inhibition at 0.1 µM | Structure (SMILES) |
| --- | --- |
| 38% | C=CCNC(=O)c1cccnc1Nc1ccc2c(c1)C(NS(=O)(=O)c1ccc(CC)cc1)CC2 (stereo not shown) [Compound 26] |
| 43% | C#CCNC(=O)c1cccnc1Nc1ccc2c(c1)C(NS(=O)(=O)c1ccc(CC)cc1)CC2 (stereo not shown) [Compound 27] |
| 35% | CCCNC(=O)c1cccnc1Nc1ccc2c(c1)C(NS(=O)(=O)c1ccc(CC)cc1)CC2 (stereo not shown) [Compound 37] |
